Experimental findings from PMC6173696, “Structural properties of a haemophore facilitate targeted elimination of the pathogen Porphyromonas gingivalis” (Nature Communications, 2018) are described below.

In general, Kd refers to the constant that tells how readily two partners part at equilibrium.

Structures are written as SMILES.

Format in all cases: binding
In test [1] the target is T1, HusA W130N (Porphyromonas gingivalis, UniProt Q7MSY3, W130N).
T1 sequence (Q7MSY3 24-218 W130N): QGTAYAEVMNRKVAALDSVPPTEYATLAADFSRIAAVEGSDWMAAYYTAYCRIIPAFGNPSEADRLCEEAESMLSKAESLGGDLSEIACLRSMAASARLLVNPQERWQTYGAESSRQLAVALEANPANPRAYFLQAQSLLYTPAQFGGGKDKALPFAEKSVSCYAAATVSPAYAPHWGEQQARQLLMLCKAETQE
The test is described as follows: Tryptophan fluorescence quenching assay, HusA mutant W130N. The settings on record: haemin.

Test [2] has as its target T2, HusA Y164A (Porphyromonas gingivalis, UniProt Q7MSY3, Y164A).
T2 sequence (Q7MSY3 24-218 Y164A): T1 sequence (Q7MSY3 24-218 W130N)
Put plainly: Tryptophan fluorescence quenching assay, HusA mutant Y164A. The conditions noted are these: haemin. Here is the method: (§1) The quenching of intrinsic tryptophan fluorescence of HusA upon porphyrin additions was measured using a Carey Eclipse Fluorescence Spectrophotometer (Agilent) set to a photo multiplier effect (PME) of 850. A 5-mm path length quartz cuvette was used and all spectra were acquired at room temperature. Excitation was set to 295 nm and emission was measured from 300 nm to 500 nm using excitation/emission slit widths of 5 nm. Binding assays were performed at a protein concentration of 1 μM HusA in standard buffer at a working volume of 0.5 mL. […] The fluorescence quenching of HusA by PPIX was investigated in a similar manner with the following difference: the fluorescence intensities of ten 1 μM HusA samples were measured each with increasing amounts of PPIX after a 2-h incubation period to allow equilibrium to be reached. See Supplementary Methods for correction for inner filter effect and curve fitting. […]
(§2) Correction of inner filter effect and curve fitting in tryptophan fluorescence quenching assays The concentration of NATA was chosen such that the raw fluorescence intensity was similar to the 10 uM concentrations of HusA and mutants used. […] Fluorescence intensity was scaled with respect to the starting florescence and corrected for the inner filter effect. Fluorescence at 335 nm was used to fit binding curves. […]

Test [3] concerns the target T3, HusA R121A (Porphyromonas gingivalis, UniProt Q7MSY3, R121A).
T3 sequence (Q7MSY3 24-218 R121A): T1 sequence (Q7MSY3 24-218 W130N)
The test is described as follows: Tryptophan fluorescence quenching assay, HusA mutant R121A. The conditions noted are these: haemin.

Test [4] has as its target T4, HusA Y133A (Porphyromonas gingivalis, UniProt Q7MSY3, Y133A).
T4 sequence (Q7MSY3 24-218 Y133A): T1 sequence (Q7MSY3 24-218 W130N)
The test is described as follows: Tryptophan fluorescence quenching assay, HusA mutant Y133A. The conditions noted are these: haemin.

Test [5] concerns the target T5, HusA R139A (Porphyromonas gingivalis, UniProt Q7MSY3, R139A).
T5 sequence (Q7MSY3 24-218 R139A): T1 sequence (Q7MSY3 24-218 W130N)
Put plainly: Tryptophan fluorescence quenching assay, HusA mutant R139A. The settings on record: haemin.

The target in test [6] is T6, HusA L107A (Porphyromonas gingivalis, UniProt Q7MSY3, L107A).
T6 sequence (Q7MSY3 24-218 L107A): T1 sequence (Q7MSY3 24-218 W130N)
Put plainly: Tryptophan fluorescence quenching assay, HusA mutant L107A. The settings on record: haemin.

Test [7] concerns the target T7, HusA L123N-V124N (Porphyromonas gingivalis, UniProt Q7MSY3, L123N/V124N).
T7 sequence (Q7MSY3 24-218 L123N/V124N): T1 sequence (Q7MSY3 24-218 W130N)
Put plainly: Tryptophan fluorescence quenching assay, HusA mutant L123N-V124N. The settings on record: haemin, mutant L123N-V124N. As to the method: as §1, §2

On to `C=CC1=C(C)c2cc3[nH]c(cc4nc(cc5[nH]c(cc1n2)c(C)c5CCC(=O)O)C(CCC(=O)O)=C4C)c(C)c3C=C.[Fe+3]` [haemin], for which the Kd was determined as 16 ± 1.8 µM in test [1]; 13 ± 0.7 µM in test [2]; 6.7 ± 1.2 µM in test [3]; 7.4 ± 0.6 µM in test [4]; 6.3 ± 1.4 µM in test [5]; 5.5 ± 0.3 µM in test [6]. Besides, the Kd in test [7] is 10.3 ± 0.7 µM.
